Earlier results as cited in PubChem BioAssay AID1259409 (Chemical Carcinogenesis Research Information System (CCRIS), 2018).

Tested on: rodent chemically induced tumor inhibition, incidence and multiplicity
Assay: CCRIS tumor inhibitor studies
Conditions: Route [Inhibitor]: ORAL, Species: RAT

With `Cn1c(=O)c2c(ncn2C)n(C)c1=O` as the compound, how does the “tumour outcome (control, treated, inhibition, significance)” value (Carcinogen: 1,2-DIMETHYLHYDRAZINE, 540-73-8, Dose [Inhibitor]: 0, 600 MG/L IN DRINKING WATER FOR DURATION OF STUDY BEGINNING 7 D PRIOR TO CARCINOGEN TREATMENT (STUDY DURATION: 8 MO), Strain/Sex: BD6/MALE, Target Tissue: Type of Lesion: INTESTINE: TUMOR, Dose [Carcinogen]: 20 MG/KG BW 1/WK FOR 20 WK, Promoter: NONE USED) read?
Its value is 100%, 100%, 0%, not significant.

And the “tumour outcome (control, treated, inhibition, significance)” value (Carcinogen: 2-ACETYLAMINOFLUORENE, 53-96-3, Dose [Inhibitor]: 0, 0.1% IN DRINKING WATER FOR FIRST 12 WK (STUDY DURATION: 30 WK), Strain/Sex: ACI/MALE, Target Tissue: Type of Lesion: LIVER: HEPATOCELLULAR ADENOMA, Dose [Carcinogen]: 0.02% IN DIET FOR FIRST 12 WK)?
The value was 100%, 78%, 22%, not significant.

And the “tumour outcome (control, treated, inhibition, significance)” value (Carcinogen: 2-ACETYLAMINOFLUORENE, 53-96-3, Dose [Inhibitor]: 0, 0.1% IN DRINKING WATER FOR FIRST 12 WK (STUDY DURATION: 30 WK), Strain/Sex: ACI/MALE, Target Tissue: Type of Lesion: LIVER: HEPATOCELLULAR CARCINOMA, Dose [Carcinogen]: 0.02% IN DIET FOR FIRST 12 WK)?
Its value is 44%, 22%, 50%, not significant.

And the “tumour outcome (control, treated, inhibition, significance)” value (Carcinogen: 2-ACETYLAMINOFLUORENE, 53-96-3, Dose [Inhibitor]: 0, 0.1% IN DRINKING WATER FOR FIRST 12 WK (STUDY DURATION: 30 WK), Strain/Sex: ACI/MALE, Target Tissue: Type of Lesion: SMALL INTESTINE: ADENOCARCINOMA, Dose [Carcinogen]: 0.02% IN DIET FOR FIRST 12 WK)?
The value was 9%, 17%, -89%, not significant.

And the “tumour outcome (control, treated, inhibition, significance)” value (Carcinogen: 2-ACETYLAMINOFLUORENE, 53-96-3, Dose [Inhibitor]: 0, 0.15% IN DRINKING WATER FOR FIRST 12 WK (STUDY DURATION: 30 WK), Strain/Sex: ACI/MALE, Target Tissue: Type of Lesion: LIVER: HEPATOCELLULAR ADENOMA, Dose [Carcinogen]: 0.02% IN DIET FOR FIRST 12 WK)?
The value was 100%, 63%, 37%, p<0.01.

And the “tumour outcome (control, treated, inhibition, significance)” value (Carcinogen: 2-ACETYLAMINOFLUORENE, 53-96-3, Dose [Inhibitor]: 0, 0.15% IN DRINKING WATER FOR FIRST 12 WK (STUDY DURATION: 30 WK), Strain/Sex: ACI/MALE, Target Tissue: Type of Lesion: LIVER: HEPATOCELLULAR CARCINOMA, Dose [Carcinogen]: 0.02% IN DIET FOR FIRST 12 WK)?
Its value is 44%, 8%, 82%, p<0.02.

What about the “tumour outcome (control, treated, inhibition, significance)” value (Carcinogen: 2-ACETYLAMINOFLUORENE, 53-96-3, Dose [Inhibitor]: 0, 0.15% IN DRINKING WATER FOR FIRST 12 WK (STUDY DURATION: 30 WK), Strain/Sex: ACI/MALE, Target Tissue: Type of Lesion: SMALL INTESTINE: ADENOCARCINOMA, Dose [Carcinogen]: 0.02% IN DIET FOR FIRST 12 WK) of the same compound?
The value was 9%, 13%, -44%, not significant.

What about the “tumour outcome (control, treated, inhibition, significance)” value (Carcinogen: 2-ACETYLAMINOFLUORENE, 53-96-3, Dose [Inhibitor]: 0, 0.2% IN DRINKING WATER FOR FIRST 12 WK (STUDY DURATION: 30 WK), Strain/Sex: ACI/MALE, Target Tissue: Type of Lesion: LIVER: HEPATOCELLULAR ADENOMA, Dose [Carcinogen]: 0.02% IN DIET FOR FIRST 12 WK) of the same compound?
Its value is 100%, 35%, 65%, p<0.001.

What about the “tumour outcome (control, treated, inhibition, significance)” value (Carcinogen: 2-ACETYLAMINOFLUORENE, 53-96-3, Dose [Inhibitor]: 0, 0.2% IN DRINKING WATER FOR FIRST 12 WK (STUDY DURATION: 30 WK), Strain/Sex: ACI/MALE, Target Tissue: Type of Lesion: LIVER: HEPATOCELLULAR CARCINOMA, Dose [Carcinogen]: 0.02% IN DIET FOR FIRST 12 WK) of the same compound?
Its value is 44%, 5%, 89%, p<0.02.

What about the “tumour outcome (control, treated, inhibition, significance)” value (Carcinogen: 2-ACETYLAMINOFLUORENE, 53-96-3, Dose [Inhibitor]: 0, 0.2% IN DRINKING WATER FOR FIRST 12 WK (STUDY DURATION: 30 WK), Strain/Sex: ACI/MALE, Target Tissue: Type of Lesion: SMALL INTESTINE: ADENOCARCINOMA, Dose [Carcinogen]: 0.02% IN DIET FOR FIRST 12 WK) of the same compound?
The value was 9%, 10%, -11%, not significant.

And the “tumour outcome (control, treated, inhibition, significance)” value (Carcinogen: 2-AMINO-1-METHYL-6-PHENYL-1H-IMIDAZO[4,5-B]PYRID INE, 105650-23-5, Dose [Inhibitor]: 0, 0.1% IN DRINKING WATER FOR 52 WK (STUDY DURATION: 52 WK), Strain/Sex: F344/FEMALE, Target Tissue: Type of Lesion: MAMMARY GLAND: FIBROADENOMA, Dose [Carcinogen]: 0.02% IN THE DIET FOR 52 WK, Promoter: NONE USED)?
The value was 2/20 (10%), 0/20 (0%), 100%, not significant.

What about the “tumour outcome (control, treated, inhibition, significance)” value (Carcinogen: 2-AMINO-1-METHYL-6-PHENYL-1H-IMIDAZO[4,5-B]PYRIDINE, 105650-23-5, Dose [Inhibitor]: 0, 0.1% IN DRINKING WATER FOR 52 WK (STUDY DURATION: 52 WK), Strain/Sex: F344/FEMALE, Target Tissue: Type of Lesion: MAMMARY GLAND: ADENOCARCINOMA, Dose [Carcinogen]: 0.02% IN THE DIET FOR 52 WK, Promoter: NONE USED) of the same compound?
The value was 8/20 (40%), 2/20 (10%), 75%, p< 0.05.

And the “tumour outcome (control, treated, inhibition, significance)” value (Carcinogen: 2-AMINO-1-METHYL-6-PHENYLIMIDAZO[4,5-B]PYRIDINE [105650-23-5], Dose [Inhibitor]: 0.1% IN DRINKING WATER FOR 54 WK (STUDY DURATION: 54 WK), Strain/Sex: F344/DUCRJ/FEMALE, Target Tissue: Type of Lesion: COLON: ADENOMA OR ADENOCARCINOMA, Dose [Carcinogen]: 0.02% IN DIET FOR 54 WK (STUDY DURATION: 54 WK), Promoter: NONE)?
Its value is 3/20 (15%), 15/20 (75%), -400%, p<0.01.
